Data from patent US12358899B2, “Thyroid hormone receptor agonists and uses thereof” (XIZANG HAISCO PHARMACEUTICAL CO., LTD., priority 2018, dated 2025).

Experiments:
CYP 1A2 = biological target: T1, CYP 1A2 (Homo sapiens, UniProt P05177); assay: CYP inhibition in human liver microsome, 1A2; assay type: in vitro ADME; details: human liver microsomes, substrate phenacetin, top 50 μM; read-out: CYP450 inhibition IC50 1A2
T1 construct: from tissue; host or cells: human liver microsomes
T1 sequence (P05177 1-516): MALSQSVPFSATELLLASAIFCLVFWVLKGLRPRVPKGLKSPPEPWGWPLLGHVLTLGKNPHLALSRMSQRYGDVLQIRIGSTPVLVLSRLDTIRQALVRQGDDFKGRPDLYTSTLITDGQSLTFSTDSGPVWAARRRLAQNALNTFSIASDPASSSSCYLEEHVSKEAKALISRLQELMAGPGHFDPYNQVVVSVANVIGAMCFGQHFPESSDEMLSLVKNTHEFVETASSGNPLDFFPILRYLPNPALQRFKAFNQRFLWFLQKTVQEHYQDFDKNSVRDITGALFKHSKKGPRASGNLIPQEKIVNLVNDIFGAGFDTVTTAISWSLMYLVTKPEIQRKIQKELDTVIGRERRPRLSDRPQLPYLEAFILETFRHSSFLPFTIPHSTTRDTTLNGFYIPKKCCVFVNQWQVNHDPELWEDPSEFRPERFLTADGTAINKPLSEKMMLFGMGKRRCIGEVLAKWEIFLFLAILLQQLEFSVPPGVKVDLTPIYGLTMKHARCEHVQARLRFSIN
Experimental: (§1) Test compounds were evaluated for CYP inhibition using human liver microsomes (HLM). Test compounds were 1:3 serially diluted starting at 50 μM to generate 7 different concentrations. After incubation of diluted test compounds with HLM, a substrate cocktail composed of phenacetin (10 uM), amodiaquine (2 uM), diclofenac (5 uM), s-mephenytoin (30 uM), dextromethorphan (5 uM), and midazolam (2 uM) was added to check the remaining CYP activity for CYP 1A2, 2C8, 2C9, 2C19, 2D6 and 3A4. The CYP activity was measured by detecting the peak area of individual metabolites of know CYP substrates using LC/MS/MS. A percentage of inhibition of CYP was calculated at each final concentration of test compound, through which an IC50 was fitted to represent the inhibition potential.

THRβ-LBD = biological target: T2, THRβ-LBD (Homo sapiens, UniProt P10828)
T2 sequence (P10828 217-461 limits assumed): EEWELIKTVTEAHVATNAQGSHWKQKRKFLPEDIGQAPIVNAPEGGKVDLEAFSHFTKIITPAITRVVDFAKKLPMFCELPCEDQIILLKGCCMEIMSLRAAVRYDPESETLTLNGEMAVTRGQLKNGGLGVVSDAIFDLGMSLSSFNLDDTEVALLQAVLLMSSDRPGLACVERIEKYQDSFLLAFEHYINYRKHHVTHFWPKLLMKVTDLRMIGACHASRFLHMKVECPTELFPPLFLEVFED

CYP 2C19 = biological target: T3, CYP 2C19 (Homo sapiens, UniProt P33261); assay: CYP inhibition in human liver microsome, 2C19; assay type: in vitro ADME; details: human liver microsomes, substrate s-mephenytoin, top 50 μM; read-out: CYP450 inhibition IC50 2C19
T3 construct: from tissue; host or cells: human liver microsomes
Experimental: as §1

THRα-LBD = biological target: T4, THRα-LBD (Homo sapiens, UniProt P10827); assay: THR coactivator recruitment assay (LanthaScreen TR-FRET), THRα; assay type: biochemical; details: for THRα Bmax % (vs T3): maximum activity relative to the maximum activity of 500 nM T3
T4 construct: purchased ThermoFisher
Experimental: The coactivator recruitment assay was performed using LanthaScreen™ TR-FRET TR coactivator assay kit (ThermoFisher). […] The diluted test compounds were mixed with the same volume of other reagents (10 μl:10 μl). […] In addition, the selectivity for each compound was normalized for the selectivity of T3 run in the same assay.

C57BL/6cnc mice [1] = assay: Cholesterol-lowering efficacy in trans-fat AMLN diet-induced hypercholesterolemia mouse model; assay type: in vivo; details: for LDL-c / liver TC / plasma TC: daily oral gavage 2 weeks, 0.3-3 mg/kg (Example 7) or 1 and 3 mg/kg; for efficacy in cholesterol reduction compared with MGL-3196: same dose; for ALT / AST: AMLN diet mice, 0.3, 1, 3 mg/kg oral, 2 weeks, MGL-3196 effect at doses greater than 1 mg/kg
Experimental: C57BL/6cnc mice were fed with AMVLN diet containing 40 Kcal % Fat, 20 Kcal % Fructose and 2% Cholesterol (Research Diets, D09100301) for 5 weeks to induce hypercholesterolemia. The cholesterol lowering efficacy of compounds disclosed herein were tested in two separate studies. […] Thyroid hormone T3 (0.1 mg/kg, intraperitoneal injection) was evaluated as a positive control in both studies. The treatment lasted two weeks with daily oral gavage. Blood samples were taken before the dosing on the first day and again at the end of study for detection of plasma cholesterol (TC), triglycerides (TG) and LDL-c. […] At the end of study, the liver tissues were taken for measuring the hepatic TC and TG levels. The compound concentration was quantified in blood, liver and heart.

α-MHC = assay: Heart safety evaluation in hypothyroid rat: cardiac α-MHC expression; assay type: in vivo; details: intraperitoneal, 37.5 mg/kg (T3 0.1 mg/kg), heart tissue after 6 hours
Experimental: SD Rats underwent thyroidectomy and recovered for 10 days. T3 and T4 were tested to confirm the complete thyroidectomy. […] Note that the dose for these compounds was […] higher than their therapeutic dose (1 mg/kg by oral gavage) in mouse models. For comparison, thyroid hormone T3 was also tested at 0.1 mg/kg with intraperitoneal injection. […] After 6 hours, the heart tissues were collected to quantitate the expression of α-MHC, a thyroid hormone responsive and THRα-target gene in heart.

C57BL/6cnc mice [2] = assay: Synergistic effect of Example 7 with other NASH compounds in mouse model; assay type: in vivo; details: Example 7 0.3 mg/kg oral daily with liraglutide, Elafibranor or CDDO-Me, 2 weeks
From the text: There are other candidates being developped for inflammation, metabolism syndromes or NASH These include glucagon-like peptide-1 (GLP-1) receptor agonist liraglutide, peroxisome proliferator-activated receptor-α and -β (PPAR-α/δ) agonist elafibranor, and nuclear erythroid 2-related factor 2 (NRF2) activator bardoxolone methyl (CDDO-Me). These candidates target different proteins and pathways, therefore have different mechanisms of action related to steatosis, inflammation, and fibrosis.
C57BL/6cnc mice were fed with high-fat diet containing 60 kacl % fat and 0.10% methionine (no added choline) (Research Diets, A06071302) for 12 weeks to induce NASH model. After 12-week diet induction, the mice had increased plasma levels of TC, LDL-c, ALT, and fibrosis markers. […] An Example 7 alone group and a vehicle group were also set up for controls. […] After 2-week treatment, serum biochemistry was measured; liver was collected to measure liver TC and TG. Livers were punched in 2 mm diameter and fixed, sectioned and stained with Sirius Red, and the fibrosis and steatosis were scored.

T3 sequence (P33261 whole entry): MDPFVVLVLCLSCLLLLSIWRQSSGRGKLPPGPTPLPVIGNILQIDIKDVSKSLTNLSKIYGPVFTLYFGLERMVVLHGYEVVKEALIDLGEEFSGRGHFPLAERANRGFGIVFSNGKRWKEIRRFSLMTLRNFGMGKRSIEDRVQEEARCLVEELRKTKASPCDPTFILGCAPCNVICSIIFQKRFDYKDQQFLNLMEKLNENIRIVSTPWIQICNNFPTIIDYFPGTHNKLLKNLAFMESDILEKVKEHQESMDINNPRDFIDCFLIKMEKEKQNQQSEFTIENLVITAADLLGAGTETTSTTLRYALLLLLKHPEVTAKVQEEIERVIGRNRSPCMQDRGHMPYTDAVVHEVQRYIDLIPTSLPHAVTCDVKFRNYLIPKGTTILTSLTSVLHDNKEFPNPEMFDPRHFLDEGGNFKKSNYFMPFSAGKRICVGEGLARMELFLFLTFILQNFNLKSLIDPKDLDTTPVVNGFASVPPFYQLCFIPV
T4 sequence (P10827 163-410 isoform P10827-2 limits assumed, other chains not shown): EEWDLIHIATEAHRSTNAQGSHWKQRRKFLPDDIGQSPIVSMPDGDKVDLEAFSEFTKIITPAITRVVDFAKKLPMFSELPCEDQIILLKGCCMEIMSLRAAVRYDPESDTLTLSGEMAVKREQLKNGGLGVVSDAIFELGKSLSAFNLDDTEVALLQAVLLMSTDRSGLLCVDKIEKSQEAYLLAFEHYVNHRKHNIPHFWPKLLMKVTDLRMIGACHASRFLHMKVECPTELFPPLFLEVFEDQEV

Compound	IC50 (CYP 1A2)	selectivity ratio (THRβ-LBD)	IC50 (CYP 2C19)	EC50 (THRα-LBD; EC50 class from TR-FRET ratio 520:495 dose response, read-out: THRα binding)	THRα Bmax % (vs T3) (THRα-LBD)	LDL-c (C57BL/6cnc mice [1]; AMLN diet mice)	liver TC (C57BL/6cnc mice [1]; AMLN diet mice)	plasma TC (C57BL/6cnc mice [1]; AMLN diet mice)	efficacy in cholesterol reduction compared with MGL-3196 (C57BL/6cnc mice [1]; AMLN diet mice)	rank among the compounds in reducing the liver and plasma cholesterol (C57BL/6cnc mice [1]; AMLN diet mice, second study, 1 and 3 mg/kg)	expression of cardiac α-MHC (α-MHC)	ALT (C57BL/6cnc mice [1])	AST (C57BL/6cnc mice [1])	synergistic effect with other candidates in reduction of liver and plasma lipids and improvement of liver conditions (C57BL/6cnc mice [2])	liver function safety compared with MGL-3196 (C57BL/6cnc mice [1]; AMLN diet mice, from ALT and AST)
C[C@@H]1CCc2c(Oc3c(Cl)cc(-n4nc(C#N)c(=O)[nH]c4=O)cc3Cl)n[nH]c(=O)c21 (single isomer, unassigned) [Example 41]	> 50 µM	12.3	> 50 µM	0.1 to 1 µM	36%	significantly reduced	significantly reduced	significantly reduced	more effective	most effective					
[2H]c1c(Cl)c(Oc2cc(C(C([2H])([2H])[2H])C([2H])([2H])[2H])c(=O)[nH]n2)c(Cl)c([2H])c1-n1nc(C#N)c(=O)[nH]c1=O [Example 30, 2-(3,5-dichloro-4-((6-oxo-5-(propan-2-yl-1,1,1,3,3,3-d6)-1,6-dihydropyridazin-3-yl)oxy)phenyl-2,6-d2)-3,5-dioxo-2,3,4,5-tetrahydro-1,2,4-triazine-6-carbonitrile]	> 50 µM		> 50 µM		34%	significantly reduced	significantly reduced	significantly reduced							
CC(C)c1cc(Oc2c(Cl)cc(-n3nc(C#N)c(=O)[nH]c3=O)cc2Cl)n[nH]c1=O [MGL-3196, reference compound]	> 50 µM		> 50 µM		49%						not affected	increased	increased		
[2H]C([2H])([2H])C(c1cc(Oc2c(Cl)cc(-n3nc(C#N)c(=O)[nH]c3=O)cc2Cl)n[nH]c1=O)C([2H])([2H])[2H] [Example 7, 2-(3,5-dichloro-4-((6-oxo-5-(propan-2-yl-1,1,1,3,3,3-d6)-1,6-dihydropyridazin-3-yl)oxy)phenyl)-3,5-dioxo-2,3,4,5-tetrahydro-1,2,4-triazine-6-carbonitrile]	> 50 µM		> 50 µM		41%	significantly reduced	significantly reduced	significantly reduced	comparable efficacy		not affected	no effect	no effect	significantly synergistic effect	safer
